Assay results from patent publication US12318373B2, “Methods of treating gastrointestinal stromal tumors” (Deciphera Pharmaceuticals, LLC, priority 2019, dated 2025).

Tests used:
[1] = system: GIST; test: Example 4: phase 1 study, efficacy by line of therapy at 150 mg QD; assay type: in vivo, human
Procedure: Efficacy and safety results from the escalation and expansion phases of a phase 1 study for patients with GIST treated at ripretinib 150 mg QD as the starting dose in 28-day cycles are presented. Local, investigator-assessed Response Evaluation Criteria in Solid Tumors (RECIST 1.1) response assessments were performed every 2 cycles, and patients in the expansion cohorts who progressed per RECIST 1.1 were allowed to dose escalate to 150 mg BID.
142 patients with GIST in the escalation and expansion phases were treated at 150 mg QD dose. Number of patients by line of therapy were as follows: 31 2nd line, 28 3rd line, and 83≥4th line patients. 135 patients (95.1%) had KIT-mutant GIST, and 7 patients (4.9%) had PDGFRA-mutant GIST.
For example, the confirmed-only complete response (CR), partial response (PR), stable disease, and progressive disease are presented in Table 4. The objective response rate data in Table 4 relates to the proportion of patients with CR+PR. The median PFS data in Table 4 refers to progression-free survival per investigator assessment, by line of therapy.

[2] = Example 9: food effect (high-fat meal) on exposure; assay type: in vivo
Procedure: The effect of a high-fat breakfast on ripretinib and Compound A exposure was evaluated. A high fat meal consisted of approximately 150, 250, and 500-600 calories from protein, carbohydrate, and fat, respectively. […] Therefore, ripretinib may be taken with or without food at approximately same time each day.

[3] = 150 mg dose with a high-fat meal

CCn1c(=O)c(-c2cc(NC(=O)Nc3ccccc3)c(F)cc2Br)cc2cnc(NC)cc21 [ripretinib]
Duration of response, Median ([1]; 150 mg QD, 2nd Line): 80 weeks
Best response (confirmed only): PR, % ([1]; 150 mg QD, 2nd Line (n = 31)): (19.4) %
Best response (confirmed only): Progressive disease, % ([1]; 150 mg QD, 2nd Line (n = 31)): (12.9) %
Best response (confirmed only): Stable disease, % ([1]; 150 mg QD, 2nd Line (n = 31)): (67.7) %
PFS, Median ([1]; 150 mg QD, 2nd Line (n = 31), investigator assessment): 46.4 weeks
Duration of response: Number of events ([1]; 150 mg QD, 2nd Line, n = 6 responders): 3
Best response (confirmed only): PR, % ([1]; 150 mg QD, 3rd Line (n = 28)): (14.3) %
Best response (confirmed only): Progressive disease, % ([1]; 150 mg QD, 3rd Line (n = 28)): (21.4) %
Best response (confirmed only): Stable disease, % ([1]; 150 mg QD, 3rd Line (n = 28)): (64.3) %
PFS, Median ([1]; 150 mg QD, 3rd Line (n = 28), investigator assessment): 36.3 weeks
Duration of response: Number of events ([1]; 150 mg QD, 3rd Line, n = 4 responders): 1
Duration of response, Median ([1]; 150 mg QD, ≥4th Line): 76.1 weeks
Best response (confirmed only): No response assessment, % ([1]; 150 mg QD, ≥4th Line (n = 83)): (6.0) %
Best response (confirmed only): Not evaluable, % ([1]; 150 mg QD, ≥4th Line (n = 83)): (1.2) %
Best response (confirmed only): PR, % ([1]; 150 mg QD, ≥4th Line (n = 83)): (7.2) %
Best response (confirmed only): Progressive disease, % ([1]; 150 mg QD, ≥4th Line (n = 83)): (26.5) %
Best response (confirmed only): Stable disease, % ([1]; 150 mg QD, ≥4th Line (n = 83)): (59.0) %
PFS, Median ([1]; 150 mg QD, ≥4th Line (n = 83), investigator assessment): 23.9 weeks
Duration of response: Number of events ([1]; 150 mg QD, ≥4th Line, n = 6 responders): 3
PFS of second and third-line patients with Exons 9, 11, 13, or 17 KIT mutations ([1]; FIG. 27): comparable PFS
Clinical benefit after dose escalation to 150 mg BID (PFS1 vs PFS2) ([1]; regardless of line of therapy, investigator assessment, FIGS. 25A, 25B): additional clinical benefit
AUC0-24h higher by [2, 3]: 30%
Cmax higher by [2, 3]: 22%
Clinical significance of the food effect ([2]; based on exposure-response analysis): not considered to be clinically significant
